Patent US12178838B2, “Synthetic neuromodulatory peptides” (Lactocore, Inc., priority 2019, dated 2024)
Like-named read-outs stand apart in the source and are kept apart here.

Key:
BALB/C mice = test: Porsolt swim test (two-day modification) in mice; format: in vivo; conditions: ip; Diazepam 0.75 mg/kg
Experimental: After an adaptation period, the test substance was intraperitoneally injected into mice. Behavioral parameters were measured in 30 minutes after injection. The tests were administered as follows: day 1—the Open field test, day 3—the Elevated plus maze test, day 5—the Marble burying test, days 12-13—the Porsolt swim (two-day modification) test.
In the Porsolt Swim test, two tests were conducted in two days. The installation is a transparent cylinder, 30 cm in height, 10 cm in diameter, filled with water (temperature about 21-23° C.) to the mark of 25 cm height. On the first day each animal was placed into the cylinder for 10 minutes. Behavioral parameters were not registered. On the second day, the animals were placed into the cylinder for 5 minutes. The following parameters were measured: duration of active (vigorous movements of all limbs) and passive (weak movements of hind limbs) swimming, as well as immobility (immobilization) (Porsolt et al. (1977) Behavioral despair in mice: a primary screening test for antidepressants. Arch Int Pharmacodyn Ther. 229(2):327-36). After each test, the mice were placed into a heated cell to dry.

Sprague Dawley rats = test: Elevated Plus Maze in rats, intranasal FQSE; format: in vivo; conditions: FQSE 0.5 mg/kg i.n.; diazepam 2 mg/kg IP
Experimental: The five doses of FQSE (SEQ ID NO:10) (0.01, 0.1, 0.5, 1 and 3 mg/kg, CS, Menlo Park, CA) were prepared fresh for each test day in sterile saline and administered intranasally (i.n.) 30 minutes prior to testing. Fifteen rats per group per peptide dose were tested with the exception that there were twenty rats in the vehicle (0) group. Each dose was administered in a randomized order across rats. Prior to dosing, the rats were lightly anesthetized (till loss of righting reflex) with isoflurane (2.5%, 0.5 L/min oxygen), placed in the recumbent position, then a thin plastic pipette (Fischer Scientific) inserted into the nares and peptide administered at a volume of 15-20 uL per nares. Individuals performing the behavioral tests were blind to drug treatment.
Rats were first allowed to acclimate to the testing room for 30 minutes while in their home cage. During testing, a rat was placed on the maze which consists of two open arms (45-cm long×10-cm wide), two closed arms (45-cm long×10-cm wide×30-cm high), and a middle compartment (4-cm long×4-cm wide) forming the shape of a plus located 50-cm above the floor, for 5-min. The test session was digitally recorded for later analyses (Ethovision, XT12). All testing was conducted under red lighting. An experimenter observed the rat during testing through a specialized observation window built into the door of the behavioral testing room. […]

[1] = system: Wistar rats after chronic unpredictable mild stress; test: CUMS model: Porsolt forced swimming test; format: in vivo; conditions: FQSE 0.05 mg/kg i.n.; Diazepam 0.5 mg/kg i.p.; 18 injections
Experimental: During stress, the animals were placed in individual cells and exposed to stressful conditions each day for 26 days. Two stressors were used daily, applied in the following order: • Day 1. 10 am-6 pm, rats were placed in a cold room for an hour. From 6 PM to 10 am the lights were turned on and off every 2 hours. • Day 2. 10 am-6 pm, cage tilted to 45°. From 6 PM to 10 am water deprivation. • Day 3. 10 am-6 pm, stroboscopic light. From 6 PM to 10 am the light was left on overnight. • Day 4. 10 am-6 pm, wet bedding. From 6 PM to 10 am the animals were put in a small mouse cage. • Day 5. 10 am-6 pm, no bedding. From 6 PM to 10 am the lights were turned on and off every 2 hours. • Day 6. 10 am-6 pm, a new rat was placed in the cage (6-month-old). From 6 PM to 10 am the light was left on overnight. • Day 7. 10 am-6 pm, white noise. From 6 PM to 10 am a stroboscopic light was turned on at night. • Day 8-26. Repetition of previously used stressors in the specified sequence. […]
The forced swim test is a rodent behavioral test used for the evaluation of antidepressant drugs, antidepressant efficacy of new compounds, and experimental manipulations that are aimed at rendering or preventing depressive-like states. […] In the last 6 minutes, the duration of active (vigorous movement of all limbs) and passive (weak strokes of the hind limbs) swimming and immobility duration were recorded. […]

[2] = molecular target: FQSE (SEQ ID NO:10)-specific binding sites in the rat cortex; test: Radioligand analysis with [3H] FQSE on rat cortex membranes
Experimental: After decapitation, the tissues were immediately frozen in liquid nitrogen and stored in a low-temperature refrigerator at −80° C. On the day of the experiment, brain tissue (cortex, about 300 mg) was homogenized in a Teflon-glass Potter homogenizer 1:25 W:V in the buffer (50 mM Tris-HCl, pH 7.4). The homogenate was centrifuged at 40,000 g for 20 min. The obtained precipitate was homogenized in a buffer (50 mM Tris-HCl; pH=7.4) and centrifuged again at 40,000 g for 20 min. A similar procedure was performed again. The precipitate was resuspended in 15 ml of the same buffer and used for the radioligand analysis.
The incubation mixture (final volume 0.5 ml) contained 50 μl […]
At the end of the incubation, the samples were filtered through Ge/C glass fiber filters (Whatman) previously moistened with 0.3% polyethyleneimine for 2 hours at room temperature. Each tube was washed twice with cold buffer, then the filters were washed twice with the same volume of buffer.
The filters were air-dried and transferred to scintillation vials. Filters were poured with 5 ml of toluene-based scintillation liquid (4 g PPO, 0.2 g POPOP per liter of toluene).
To construct the curves of the radioactive ligand's displacement each concentration of the test substance was taken in 3 replications. […]

SMILES: CN1C(=O)CN=C(c2ccccc2)c2cc(Cl)ccc21 [Diazepam]
- tested parameters (duration of active and passive swimming, immobility time) (BALB/C mice): did not lead to the changes in any tested parameter
- percent time on the open arm (Sprague Dawley rats): 10.8±1.11%
- immobilization time [1]: did not differ
- IC50 ([2]; read-out: IC50 after different incubation times: 50 min): 52 ± 0.3 µM
- IC50 ([2]; read-out: IC50 after different incubation times: 1 h): 89 ± 0.3 µM
- IC50 ([2]; read-out: IC50 after different incubation times: 1 h 30 min): 95 ± 0.2 µM
- IC50 ([2]; read-out: IC50 for the [3H]-FQSE binding sites in rat cortex membranes): ~100 µM
